Data as given in patent publication US8629102B2, “3-hydroxyisothiazole 1-oxide derivatives” (Mochida Pharmaceutical Co., Ltd., priority 2011, dated 2014).
pEC50: −log10 of the molar value.

Biological target: T1, GPR40 of human origin (Homo sapiens, UniProt O14842)
T1 construct: expressed in transfected cells
Experiment: Agonist action on GPR40 of human origin (intracellular Ca2+ change)
Assay type: cell-based
Conditions: CHO cell strain stably expressing GPR40 of human origin; change in Ca2+ concentration, fluorescent calcium indicator
Experimental: Pharmacological Test Example 1: Agonist Action on GPR40 of Human Origin
A CHO cell strain stably expressing GPR40 of human origin was used to determine the agonist action of a subject compound. This cell strain was seeded in a clear bottom 96 well plate at 4×10^4 cells/100 pt/well. The cell strain iswas cultured in a CO2 incubator overnight using a Ham's F-12 medium containing a 10% fetal bovine serum, 100 U/mL penicillin, 0.1 mg/mL streptomycin, and 400 μg/mL Geneticin. Calcium 4 Assay Kit (Molecular Devices) was used as a fluorescent calcium indicator. One mL of 77 mg/mL probenecid (Invitrogen) was added to 100 mL of a calcium indicator solution to prepare a solution (loading solution) mixed with a 20 mM HEPES-containing Hanks' balanced salt solution (HBSS) in equal proportions. To the cells from which the culture solution is removed, 200 μl of the loading solution was added, and the cells were cultured in a CO2 incubator for 1 hour. The subject compound was diluted with a 20 mM HEPES-containing HBSS and was added to the cells by 50 μL, and the change in the Ca^2+ concentration was measured with an intracellular ion analyzer. The EC50 value of the subject compound was calculated using the dose-response curve of fluorescence intensity variation.

T1 sequence (O14842 whole entry): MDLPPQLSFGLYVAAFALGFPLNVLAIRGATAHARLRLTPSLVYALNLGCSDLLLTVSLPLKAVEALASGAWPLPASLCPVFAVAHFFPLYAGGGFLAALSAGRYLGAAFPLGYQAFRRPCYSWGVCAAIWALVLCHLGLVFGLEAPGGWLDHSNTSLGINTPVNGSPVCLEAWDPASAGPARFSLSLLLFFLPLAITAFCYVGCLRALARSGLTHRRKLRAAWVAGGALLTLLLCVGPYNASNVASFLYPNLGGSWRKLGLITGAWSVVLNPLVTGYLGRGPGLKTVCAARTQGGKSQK

| Compound | pEC50 |
| --- | --- |
| CS(=O)(=O)CCCOc1ccc(Oc2cccc3c2CC[C@H]3Oc2ccc(-c3cc(O)n[s+]3[O-])cc2)cc1 (stereo partly drawn) [Example 115, 3-hydroxy-5-(4-(((R)-4-(4-(3-(methylsulfonyl)propoxy)phenoxy)-2,3-dihydro-1H-inden-1-yl)oxy)phenyl)isothiazole 1-oxide] | > 6.52 |
| CS(=O)(=O)c1ccccc1-c1cccc2c1CC[C@H]2Oc1ccc(-c2cc(O)n[s+]2[O-])cc1 (stereo partly drawn) [Example 70, 5-(4-(((R)-4-(2-(methylsulfonyl)phenyl)-2,3-dihydro-1H-inden-1-yl)oxy)phenyl)-3-hydroxyisothiazole 1-oxide] | > 6.52 |
| CC(C)(O)CCOc1cccc(Oc2cccc3c2CC[C@H]3Oc2ccc(-c3cc(O)n[s+]3[O-])cc2)c1 (stereo partly drawn) [Example 112, 3-hydroxy-5-(4-(((R)-4-(3-(3-hydroxy-3-methylbutoxy)phenoxy)-2,3-dihydro-1H-inden-1-yl)oxy)phenyl)isothiazole 1-oxide] | > 6.52 |
| Cc1cncc(-c2cccc3c2CC[C@H]3Oc2ccc(-c3cc(O)n[s+]3[O-])cc2)c1 (stereo partly drawn) [Example 72, 5-(4-(((R)-4-(5-methylpyridin-3-yl)-2,3-dihydro-1H-inden-1-yl)oxy)phenyl)-3-hydroxyisothiazole 1-oxide] | > 6.52 |
| N#Cc1ccc(Oc2cccc3c2OCC3Oc2ccc(-c3cc(O)n[s+]3[O-])cc2)cc1 (stereo not drawn) [Example 138, 4-((3-(4-(3-hydroxy-1-oxidoisothiazol-5-yl)phenoxy)-2,3-dihydrobenzofuran-7-yl)oxy)benzonitrile] | > 6.52 |
| [O-][s+]1nc(O)cc1-c1ccc(O[C@@H]2CCc3c(-c4ccc(F)cc4OCc4ccccc4)cccc32)cc1 (stereo partly drawn) [Example 61, 5-(4-(((R)-4-(2-benzyloxy-4-fluorophenyl)-2,3-dihydro-1H-inden-1-yl)oxy)phenyl)-3-hydroxyisothiazole 1-oxide] | 5.52 to 6.52 |
| [O-][s+]1nc(O)cc1-c1ccc(O[C@@H]2CCc3c(-c4ccc(Cl)s4)cccc32)cc1 (stereo partly drawn) [Example 81, 5-(4-(((R)-4-(5-chlorothiophen-2-yl)-2,3-dihydro-1H-inden-1-yl)oxy)phenyl)-3-hydroxyisothiazole 1-oxide] | > 6.52 |
| Cc1cc(OCCC(C)(C)O)cc(C)c1-c1cccc2c1OCC2Oc1ccc(-c2cc(O)n[s+]2[O-])cc1 (single isomer, unassigned) [Example 148-a, 3-hydroxy-5-(4-((7-(4-(3-hydroxy-3-methylbutoxy)-2,6-dimethylphenyl)-2,3-dihydrobenzofuran-3-yl)oxy)phenyl)isothiazole 1-oxide] | > 6.52 |
| C=Cc1ccc(-c2cccc3c2CC[C@H]3Oc2ccc(-c3cc(O)n[s+]3[O-])cc2)cc1 (stereo partly drawn) [Example 25, 5-(4-(((R)-4-(4-vinylphenyl)-2,3-dihydro-1H-inden-1-yl)oxy)phenyl)-3-hydroxyisothiazole 1-oxide] | 5.52 to 6.52 |
| [O-][s+]1nc(O)cc1-c1ccc(O[C@@H]2CCc3c(-c4ccc(OCc5ccccc5)c(F)c4)cccc32)cc1 (stereo partly drawn) [Example 57, 5-(4-(((R)-4-(4-benzyloxy-3-fluorophenyl)-2,3-dihydro-1H-inden-1-yl)oxy)phenyl)-3-hydroxyisothiazole 1-oxide] | 5.52 to 6.52 |
| [O-][s+]1nc(O)cc1-c1ccc(O[C@@H]2CCc3c(-c4ccsc4)cccc32)cc1 (stereo partly drawn) [Example 82, 3-hydroxy-5-(4-(((R)-4-(thiophen-3-yl)-2,3-dihydro-1H-inden-1-yl)oxy)phenyl)isothiazole 1-oxide] | > 6.52 |
| CCOc1cc(Cl)ccc1-c1cccc2c1CC[C@H]2Oc1ccc(-c2cc(O)n[s+]2[O-])cc1 (stereo partly drawn) [Example 18, 5-(4-(((R)-4-(4-chloro-2-ethoxyphenyl)-2,3-dihydro-1H-inden-1-yl)oxy)phenyl)-3-hydroxyisothiazole 1-oxide] | 5.52 to 6.52 |
| [O-][s+]1nc(O)cc1-c1cccc(OCCc2cccc(Oc3ccccc3)c2)c1 (stereo not drawn) [Example 163, 3-hydroxy-5-(3-(3-phenoxyphenethoxy)phenyl)isothiazole 1-oxide] | 5.52 to 6.52 |
| [O-][s+]1nc(O)cc1-c1ccc(O[C@@H]2CCc3c(-c4cc(C(F)(F)F)ccc4Cl)cccc32)cc1 (stereo partly drawn) [Example 68, 5-(4-(((R)-4-(2-chloro-5-trifluoromethylphenyl)-2,3-dihydro-1H-inden-1-yl)oxy)phenyl)-3-hydroxyisothiazole 1-oxide] | 5.52 to 6.52 |
| COc1ccc(Oc2cccc3c2OCC3Oc2ccc(-c3cc(O)n[s+]3[O-])cc2)cn1 (single isomer, unassigned) [Example 152-a, 3-hydroxy-5-(4-((7-((6-methoxypyridin-3-yl)oxy)-2,3-dihydrobenzofuran-3-yl)oxy)phenyl)isothiazole 1-oxide] | > 6.52 |

More lines, now with the values ahead:

| pEC50 | Compound |
| --- | --- |
| > 6.52 | Cc1ccc(C)c(-c2cccc3c2CC[C@H]3Oc2ccc(-c3cc(O)n[s+]3[O-])cc2)c1 (stereo partly drawn) [Example 37, 5-(4-(((R)-4-(2,5-dimethylphenyl)-2,3-dihydro-1H-inden-1-yl)oxy)phenyl)-3-hydroxyisothiazole 1-oxide] |
| > 6.52 | COc1cccc(Oc2cccc3c2CC[C@H]3Oc2ccc(-c3cc(O)n[s+]3[O-])cc2)n1 (stereo partly drawn) [Example 149, 3-hydroxy-5-(4-(((R)-4-((6-methoxypyridin-2-yl)oxy)-2,3-dihydro-1H-inden-1-yl)oxy)phenyl)isothiazole 1-oxide] |
| > 6.52 | Cc1cc(F)ccc1-c1cccc2c1CC[C@H]2Oc1ccc(-c2cc(O)n[s+]2[O-])cc1 (stereo partly drawn) [Example 39, 5-(4-(((R)-4-(4-fluoro-2-methylphenyl)-2,3-dihydro-1H-inden-1-yl)oxy)phenyl)-3-hydroxyisothiazole 1-oxide] |
| > 6.52 | COc1ccc(-c2cccc3c2CC[C@H]3Oc2ccc(-c3cc(O)n[s+]3[O-])cc2)c(C)c1 (stereo partly drawn) [Example 40, 5-(4-(((R)-4-(4-methoxy-2-methylphenyl)-2,3-dihydro-1H-inden-1-yl)oxy)phenyl)-3-hydroxyisothiazole 1-oxide] |
| > 6.52 | Cc1cccc(Oc2cccc3c2CC[C@H]3Oc2ccc(-c3cc(O)n[s+]3[O-])cc2)n1 (stereo partly drawn) [Example 130, 3-hydroxy-5-(4-(((R)-4-((6-methylpyridin-2-yl)oxy)-2,3-dihydro-1H-inden-1-yl)oxy)phenyl)isothiazole 1-oxide] |
| > 6.52 | NC(=O)c1cccc(Oc2cccc3c2CC[C@H]3Oc2ccc(-c3cc(O)n[s+]3[O-])cc2)c1 (stereo partly drawn) [Example 128, 3-(((1R)-1-(4-(3-hydroxy-1-oxidoisothiazol-5-yl)phenoxy)-2,3-dihydro-1H-inden-4-yl)oxy)benzamide] |
| > 6.52 | COc1ccc(Oc2cccc3c2CC[C@H]3Oc2ccc(-c3cc(O)n[s+]3[O-])cc2)cc1 (stereo partly drawn) [Example 92, 3-hydroxy-5-(4-(((R)-4-(4-methoxyphenoxy)-2,3-dihydro-1H-inden-1-yl)oxy)phenyl)isothiazole 1-oxide] |
| > 6.52 | [O-][s+]1nc(O)cc1-c1ccc(O[C@@H]2CCc3c(-c4cccc(F)c4)cccc32)cc1 (stereo partly drawn) [Example 29, 5-(4-(((R)-4-(3-fluorophenyl)-2,3-dihydro-1H-inden-1-yl)oxy)phenyl)-3-hydroxyisothiazole 1-oxide] |
| > 6.52 | Cc1cccc(Oc2cccc3c2CC[C@H]3Oc2ccc(-c3cc(O)n[s+]3[O-])cc2)c1 (stereo partly drawn) [Example 94, 3-hydroxy-5-(4-(((R)-4-(m-tolyloxy)-2,3-dihydro-1H-inden-1-yl)oxy)phenyl)isothiazole 1-oxide] |
